Laboratory results taken from ChEMBL document CHEMBL3507680, “University of Dundee, Gates Library screen for HepG2 cell viability”.

Assay: Human HepG2 cell viability assay in 384 well format
Type: toxicity, cell-based
Set-up: dose 125 nL, time 70.5 hour; cytotoxicity at 70.5 h: concentration not given beside the values
Conditions: HepG2 cells, read-out: Inhibition

Compound | cytotoxicity at 70.5 h [%]
CCC1=N[C@@]2(CC[C@@H]3CN(Cc4cccc(Cl)c4)C[C@@H]32)C(=O)N1C | 16.7
CN(Cc1nc(Cc2cccc(C(F)(F)F)c2)no1)C1CCCCC1 | -10.4
CCc1nc(-c2cccc(C(=O)O)c2)no1 | 16.3
COCC1COCCC12CCN(C(=O)CCOc1ccccc1)CC2 (configuration not stated) | -2.28
OC(CN(Cc1ccccc1)Cc1cscn1)c1ccco1 (configuration not stated) | -9.5
CN(C)C(=O)c1cccc(NC(=O)Cc2cc(F)ccc2F)n1 | 1.76
Cc1cnn(CCC(=O)N2C[C@H]3CC[C@@H]2CN(CC(=O)N(C)C)C3)c1 | -3.83
Nc1cccc(-c2cccc3ccnn23)n1 | -6.36
O=C(NCc1cc[nH]n1)N1CCN(c2ncccn2)CC1 | -8.57
O=C(Cn1ccc2sccc2c1=O)NCc1ccccc1F | -5.13
O=C1CC2(CCN(C(=O)c3csc(-c4ccccc4)n3)C2)C(=O)N1 (configuration not stated) | -5.85
COCC(=O)Nc1cnc(N2CCCC2)nc1 | -0.927
CC1CCCCN1CCNC(=O)NCc1ccc(C#N)cc1F (configuration not stated) | -6.05
O=C(c1ccco1)N1C[C@@H]2OCCN(CCN3CCCC3)[C@@H]2C1 | -11.2
C[C@@H]1CN(C(=O)C2(N3CCCCC3)Cc3ccccc3C2)C[C@H](C)O1 | -9
Cc1ccccc1CC(=O)N1CCOCC1c1c(C)n[nH]c1C (configuration not stated) | -6.23
Cc1cc(C)nc(N2CCC(c3nnc(CN(C)C)n3C3CC3)CC2)n1 | -5.18
COc1ccc(C(C(=O)O)N2CCCN(C3CCCC3)CC2)cc1OC (configuration not stated) | 18.5
CC(C)N1C(=O)C[C@H]2[C@@H]1CCN2C(=O)c1ccco1 | 24.5
Cc1ccsc1CNC(=O)Nc1ccn(CCN2CCOCC2)n1 | 14.8
COCc1cn(C2CCN(Cc3ccc(Cl)s3)CC2)nn1 | -12.4
Cc1nnc(CN2CCN(CCOc3ccccc3C#N)CC2)n1C | 7.15
Cc1nc(C)n(CC2CCCN(CCCc3ccccc3)C2)n1 (configuration not stated) | 4.81

Compound | cytotoxicity at 70.5 h [%]
CN(C)c1ccc(C(=O)N2CCC(c3n[nH]c(C4CC4)n3)CC2)cc1 | -6.1
O=C1NCCN1C1CCN(Cc2ccccn2)CC1 | -5.43
Cc1cc(CN[C@@H](Cc2ccccc2)C(N)=O)c(C)s1 | -14.1
CN1C(=O)CC2(CCN(S(=O)(=O)N(C)C)CC2)c2ccccc21 | 33.2
CC(C)n1nnnc1-c1ccc(NC(=O)C(C)(C)C#N)cc1F | 4.99
O=C(CNc1cc2c(cc1Br)OCCO2)NC1CCS(=O)(=O)C1 (configuration not stated) | -2.07
CCCc1nc(N2CCCC(CCOC)C2)c2cnn(C)c2n1 (configuration not stated) | 15.9
Cn1cc(C(=O)NC[C@@H]2OC[C@H]3CN(Cc4ccco4)CC[C@H]32)cn1 | -7.09
Fc1ccc(-c2cnc(CN3CCCC3Cn3cccn3)o2)cc1 (configuration not stated) | -8.12
Cc1cnn(-c2ccc(S(=O)(=O)N(C)CC(C)(CO)CO)cc2F)c1 | 17.1
CN1C(=O)CO[C@H](c2ccc(NC(=O)c3cccnc3)cc2)[C@H]1CO | -2.53
Cn1cc(C(=O)NCCc2ccc(OC3CCCC3)cc2)ccc1=O | 1.62
c1cc(CN2CCC[C@@H](Cn3nnc(-c4cnccn4)n3)C2)ccn1 | -2.89
CNC(=O)c1cn2cc(-c3ccc(F)cc3)n(CC=C(C)C)c(=O)c2n1 | 19.4
NC(=O)C1(c2cnccn2)CCCN1Cc1ccccn1 (configuration not stated) | -3.76
CC(C)n1cnnc1Cn1c(=O)cnc2ccccc21 | -4.23
CSCC[C@@H]1CN2CCC[C@H]2CN1Cc1coc2ccc(C)cc2c1=O | -1.62
CCCn1cc(S(=O)(=O)N[C@H]2CN(C(C)=O)C[C@@H]2C2CC2)cn1 | -1.84
Cn1nc(COCC2CC2)c2c1CN(CC1CC1)CC2 | -0.347
Cn1cc(-c2cc(-c3cnn(C)c3)n(CC(=O)NC3CC3)n2)cn1 | -20.4
N#Cc1ccccc1CN1C[C@@H]2CC[C@H](C1)N(CC1CC1)C2=O | -7.57
CC(C)NC(=O)NC(C)c1ccc(-c2ccncc2)cc1 (configuration not stated) | -7.15
CCn1ncc2c1CCCC2NCc1csc(COC)n1 (configuration not stated) | 21.6

Compound | cytotoxicity at 70.5 h [%]
Cn1cnc(S(=O)(=O)N2CCCC2)c1Cl | -10.3
c1c[nH]c(-c2cn(CCSc3cnn[nH]3)nn2)n1 | -11.9
COc1cc(NCC(c2ccccn2)N2CCOCC2)ncn1 (configuration not stated) | -3.18
COCCN1C[C@@H]2[C@@H](OC)CCN(C(=O)c3cccc(OC)c3)[C@@H]2C1 | 2
O=C1NCc2ccccc2CC12CCCN(Cc1ccsc1)C2 (configuration not stated) | 2.74
Cc1cnn(CC(=O)Nc2cc(-n3nnnc3C3CC3)ccc2F)c1 | -7.79
Fc1cccc(Oc2ccc(CNCC3CNc4ccnn4C3)cn2)c1 (configuration not stated) | 0.403
CCc1cc(N2CCS(=O)(=O)CC2)n2nc(C)c(C)c2n1 | -5.71
CCC(O)CNC(=O)c1cc(COc2ccc(OC)cc2Cl)[nH]n1 (configuration not stated) | -1.08
CN(C1CCN(c2ccccn2)CC1)S(=O)(=O)c1cccc(F)c1 | 2.86
Cc1nn(CCCNC(=O)C2CCN(S(C)(=O)=O)CC2)cc1Br | -4.82
CCc1ccc(-c2nn3c(nc2=O)-c2ccccc2NC3C(=O)O)cc1 (configuration not stated) | -10.4
CC(C)CN1CCC2(CCN(C(=O)c3ccc(F)cc3)CC2)C1=O | -5.58
CC(C)CNC(=O)CC1OCCc2ccsc21 (configuration not stated) | -7.58
Cc1noc(C)c1CN1CCC2(CC1)C(c1ccccc1)CC(=O)N2C (configuration not stated) | -1.86
c1ccc(CO[C@H]2CC[C@H]3[C@H]2OCCN3Cc2nccs2)nc1 | 1.15
Cc1nccn1-c1cccc(N2CCC(OCC3CCCCO3)CC2)n1 (configuration not stated) | -11.6
CCn1c(NCc2ccco2)nc2c(C)nn(C)c2c1=O | 31.6
O=C(O)c1ccccc1-n1cnc(CN2CCCCCC2)c1 | -1.66
Cc1cscc1C(=O)Nc1cncnc1N(C)C | -7.99
Cc1cc(CN2CCOC(CNc3cccnn3)C2)on1 (configuration not stated) | -0.746
CCN(Cc1noc(C)n1)C(=O)CCn1c(C)cc2ccccc21 | -6.29
c1cn(-c2ccc(CN3CCOC(Cn4cncn4)C3)cc2)cn1 (configuration not stated) | -7.67

Compound | cytotoxicity at 70.5 h [%]
CN(C)CCN(Cc1cccnc1)C(=O)c1ccn(-c2ccccc2)n1 | -3.54
Cc1cc(C)n(-c2ccc(C(C)NS(=O)(=O)CCCS(C)(=O)=O)cc2)n1 (configuration not stated) | 19.6
CC(C(N)=O)N1CCc2onc(-c3cccc(F)c3)c2C1 (configuration not stated) | -12.5
COc1c(CNCc2cccc(Cn3cccn3)c2)c(C)nn1C | 3.69
O=C(c1cccnc1Oc1ccc(Cl)cc1)N1CC[C@@H](O)C1 | 24.9
O=C1COC2(CCN(c3cccc(F)c3)CC2)CN1Cc1ccccn1 | 0.382
O=C1CC(NCc2ncc[nH]2)CN1CCc1cccc(Cl)c1 (configuration not stated) | -8.16
COc1cccc(CC2CCCN2CCCO)c1 (configuration not stated) | -2.11
Cc1nc(C2CCCN(C(=O)c3cc(Cl)c4c(c3)OCO4)C2)no1 (configuration not stated) | -5.22
CCN(Cc1ccc(OC)c(F)c1)C(=O)c1ccc(C)[nH]c1=O | -3.76
CC(C)NC(=O)N1CC(=O)c2sc(Nc3ccc(C#N)cc3)nc2C1 | -7.13
CCOCCSc1nnc(-c2cn(CC)nc2OCC)n1C | -7.58
Cc1nc(C)c(C(=O)Nc2ccc(-c3nnc(N(C)C)o3)cc2)o1 | -4.93
Nc1ncc2c(n1)CN(C1CCCC1)C2=O | -7.28
COCCNC(=O)C[C@@H]1COC[C@H]2CN(C(=O)C3CCOCC3)C[C@@H]12 | 1.49
Fc1cccc(CCN(c2ccc3nnnn3n2)C2CC2)c1 | -17.4
CS(=O)(=O)NCCCN1CCCC1c1ccccc1 (configuration not stated) | 20
COc1ccc2c(c1)CN(Cc1ccco1)C(=O)CCN2CC(C)(C)O | 1.21
N#Cc1ccnc(N2CCN(CC(O)c3ccccc3)CC2)c1 (configuration not stated) | -8.1
Cn1ccc(CN2CCCC(CNS(C)(=O)=O)C2)cc1=O (configuration not stated) | -10.1
CN(CCN1CCOCC1)C(=O)C1(c2ccc(F)cc2F)CCC1 | -2.7
CCC(C)NC(=O)CN1CCC2(CC1)OCCO2 (configuration not stated) | 3.04
CS(=O)(=O)N1CC[C@]2(C[C@@H](OCC3CCC3)CO2)C1 | -12.4

Compound | cytotoxicity at 70.5 h [%]
CCN(C)S(=O)(=O)N1CCCC(c2nc(-c3ccccc3)c[nH]2)C1 (configuration not stated) | 14.3
O=C(NCCNc1ccccn1)NC1CCOC2(CCCCC2)C1 (configuration not stated) | 3.54
CC(C)N1CCO[C@H]2CN(C(=O)c3ccsc3)C[C@H]21 | -7.23
Cn1cc(C(=O)N2CCCC(Cc3cnccn3)C2)cn1 (configuration not stated) | -15.6
Cc1nc(C)n(C2CCCN(C(=O)c3c[nH]c(C(C)C)n3)C2)n1 (configuration not stated) | -11.1
Cc1nc(N2CCCC2)nc2c1CN(C(=O)c1ccco1)CC2 | -4.28
O=C(CC1COCCN1C(=O)c1cscn1)c1ccccc1 (configuration not stated) | -11.8
O=C(Cc1cccs1)NCC1(O)CCc2ccccc2C1 (configuration not stated) | -7.27
CN(Cc1cn2c(n1)CN(CC1CCOC1)CC2)Cc1ccco1 (configuration not stated) | 1.38
COc1nc(C)c(C(=O)NCc2cc(N3CCOCC3)ncn2)s1 | -2.68
CCn1cc(CN(C)C(=O)c2cccc(CCC(C)(C)O)c2)cn1 | -3.4
CSCCC(=O)N1C[C@H](Nc2ccnc(C)n2)[C@@H](C(C)C)C1 | -23.4
Cc1cc(C)n(CC2CN(Cc3cccnc3)CCO2)n1 (configuration not stated) | 3.35
O=C(NCc1ccccn1)[C@@H]1COC[C@H]2CN(C3CCOCC3)C[C@H]21 | 2.68
O=C(NCc1ccccc1CN1CCOCC1)Nc1nncs1 | 11
COCC(=O)N1CCCC(c2cccc(-n3ccnc3)n2)C1 (configuration not stated) | 4.64
O=C(c1cscn1)N1CCC2(CCN(S(=O)(=O)c3ccccc3)C2)C1 (configuration not stated) | -17.7
CCOCC1CN(S(=O)(=O)N(C)C)Cc2cnn(CC3CC3)c21 (configuration not stated) | 2.18
CC(C)c1nc2c(n1C)CCN(CC(=O)Nc1cccnc1)C2 | -9.65
COC1COC2(CCN(Cc3ccccc3C)CC2)C1 (configuration not stated) | -13.2
